{"source": "patent US6114326A", "about": "“Use of cabergoline in the treatment of restless legs syndrome” (priority 1999, dated 2000)", "key": {"[1]": {"system": "restless legs syndrome patients", "experiment": "Polysomnography in 12-week open label pilot trial of single evening cabergoline dose in RLS", "assay_type": "in vivo", "protocol": "Cabergoline in RLS, ENS, Nice, Abstract.\n(§1) Efficacy was assessed by polysomnography and subjective ratings.\n(§2) Following a 2-week baseline period, all patients were treated with cabergoline in an open trial for 12 weeks. Apart from levodopa, patients had to stop taking any medication known to have positive or negative effect on RLS two weeks before baseline (i.e., other dopamine agonists, benzodiazepines, opioids or other psychotropic agents). Patients who were on levodopa therapy were allowed to either stop levodopa prior to study entry or to continue, taper or discontinue levodopa during the study. To prevent well known peripheral dopaminergic side-effects such as nausea, vomiting, vertigo and arterial hypotension domperidone (not available in the United States) was comedicated initially and also tapered if possible. […] Neurological case history, examination, electrocardiogramm, chest x-ray and polysomnography were performed to ensure that selection criteria were fulfilled. A two-night PSG (including one night of adaptation) was performed to evaluate the diagnosis and inclusion/exclusion criteria regardless if patients were on or off levodopa. After a 12-week treatment period patients were studied again for one night in the sleep laboratory. Subjective ratings were obtained at baseline, week 4, week 8 and at the endpoint after 12 weeks. In addition patients were monitored by phone calls to note any adverse events and to determine whether to increase the dosage of the study drug, to decrease levodopa and to decrease domperidone. The time schedule of phone calls was variable and the frequency mostly dependent on the presence of simultaneous levodopa therapy.\nInclusion criteria. Patients were included if they fulfilled the minimal diagnostic criteria according to the International RLS Study Group. After rating clinical symptoms at baseline, patients were referred to polysomnography without any RLS specific treatment other than levodopa. Patients were included if they had more than five PLM per hour of time-in-bed (PLM index) and a sleep efficiency index (total sleep time per hour time-in-bed) of less than 85%.\nExclusion criteria. Patients with signs of any other sleep disorder on PSG, especially sleep apnea syndrome (respiratory disturbances index >5 per hour total sleep time), were excluded. Subjects receiving neuroleptic, antidepressant or other psychotropic medications or with any severe additional illness (with special consideration to pulmonary fibrosis) or drug abuse were also excluded. Patients with established or suspected hypersensitivity to ergot derivates and patients with clinical significant change in routine laboratory studies were not included. Pregnant or lactating women or women without safe contraception were not allowed to participate in this study.\n(§3) Dosing. Study medication was available in tablets containing 0.5 mg, 1 mg or 2 mg Cabergoline (Cabaseril®, Pharmacia & Upjohn, Erlangen, Germany). Medication was taken 2 hours prior to bedtime. Initial therapy consisted of one 0.5 mg tablet. […] The increased dose could be decreased again if necessary. All patients were initially comedicated with domperidone 20 mg t.i.d. which could be tapered and stopped if possible. Subjects who were pretreated with levodopa were asked to decrease levodopa simultaneously if possible.\nPolysomnographic studies. At baseline and at the study end after 12 weeks PSG recordings were performed for one night (11 p.m.-7 a.m.) to evaluate inclusion/exclusion criteria and to obtain primary and secondary efficacy parameters. Studies included monitoring of electroencephalogram (EEG) (C3-A2, C4-A1), electrooculogram, chin EMG, EMG of both anterior tibialis muscles and electrocardiogram (ECG). PSG methods used standard procedures such as Pollmacher and Schultz. At baseline respiration, oronasal airflow, respiration effort and oxygen saturation were monitored by standard methods. Sleep scoring was also done by methods. […]"}, "[2]": {"system": "restless legs syndrome patients", "experiment": "Patients' subjective ratings (PGI, RLS severity, sleep satisfaction, sleep diary, quality of life) in 12-week open label trial", "assay_type": "in vivo", "protocol": "as §1, §2, §3\nSubjective ratings. After each night of recording and at each visit at week 2 and 4, patients rated the severity of illness (normal to extremely ill), the therapeutic effects by rating their global improvements by use of the Patients Global Impressions (general condition very much worse to very much better), the severity of RLS symptoms during the time of falling asleep, during the night and during the day (scale: 0=not present to 10=very strong) and sleep satisfaction (very unsatisfied to very satisfied). In addition patients rated their quality of life, concerning well being and complaints during the previous week, using modified 50-mm Hamburger Visual Analogue Scale. Patients also filled in a sleep diary at each study visit rating the following symptoms: global assessment of sleep (very bad to very good night), sleep latency, sleep time, frequency of awakenings and urge to move the legs at time falling asleep, during the night and during the day (scale: 0=not present to 10=very strong).\nStatistical analysis. Statistical evaluation was performed as intent-to-treat analysis using descriptive statistics."}, "[3]": {"details": "of 9 patients, under cabergoline"}}, "note": "Entries after “also recorded” stand apart in the source; their conditions may differ.", "data": [{"smiles": "C=CCN1C[C@H](C(=O)N(CCCN(C)C)C(=O)NCC)C[C@@H]2c3cccc4[nH]cc(c34)C[C@H]21", "note": "[Cabergoline, 1((6-allylergolin-8β-yl) -carbony.)-1-(3-(dimethylamino)propyl)-3-ethylurea]", "values": [{"measurement": "increase in total sleep time", "setting": "[1]; endpoint vs. baseline", "result": "more than one"}, {"measurement": "reduction of PLM during time in bed, PLM arousals and PLM awakenings (in words)", "setting": "[1]; endpoint vs. baseline", "result": "significant reduction"}, {"measurement": "sleep efficiency (in words)", "setting": "[1]; endpoint vs. baseline", "result": "increased"}, {"measurement": "sleep latency (in words)", "setting": "[1]; endpoint vs. baseline", "result": "shortened"}, {"measurement": "total sleep time (in words)", "setting": "[1]; endpoint vs. baseline", "result": "prolonged"}, {"measurement": "total number of PLM during time in bed (No. Of PLM)", "setting": "[1]; week 12, cabergoline monotherapy (mean 2.1 mg, single evening dose), baseline 195.8 ± 109.1", "result": "26.4±40.2"}, {"measurement": "number of PLM awakenings", "setting": "[1]; week 12, cabergoline monotherapy, baseline 9.6 ± 4.9", "result": "1.0±2.0"}, {"measurement": "PLM arousal index", "setting": "[1]; week 12, cabergoline monotherapy, baseline 10.4 ± 7.8", "result": "1.0±1.7 number of PLM arousals per hou"}, {"measurement": "PLM index", "setting": "[1]; week 12, cabergoline monotherapy, baseline 27.7 ± 17.1", "result": "3.6±5.3 number of PLM per hour time in"}, {"measurement": "Sleep Latency", "setting": "[1]; week 12, cabergoline monotherapy, baseline 42.4 ± 49.1", "result": "16.3 ± 22.8", "unit": "min"}, {"measurement": "PLM arousals", "setting": "[1]; week 12, cabergoline monotherapy, baseline 51.7 ± 42.3", "result": "6.4±11.2"}, {"measurement": "Sleep efficiency", "setting": "[1]; week 12, cabergoline monotherapy, baseline 63.1 ± 10.5", "result": "79.1±12.5", "unit": "%"}, {"measurement": "Total sleep time", "setting": "[1]; week 12, cabergoline monotherapy, baseline 302.7 ± 50.7", "result": "379.4 ± 59.8", "unit": "min"}, {"measurement": "subjective and objective sleep parameters (in words)", "setting": "[2]; 12-week treatment, 1 to 4 mg (mean 2.1 mg)", "result": "marked improvement"}, {"measurement": "relief of RLS symptoms (in words)", "setting": "[2]; all patients, 12 weeks, 1 to 4 mg single evening dose", "result": "significant relief or became free of RLS symptoms; also recorded: complete or significant relief of RLS symptoms"}, {"measurement": "times patients had to get up per night (sleep diary)", "setting": "[2]; endpoint, baseline 2.1", "result": 0.6, "unit": "times per night"}, {"measurement": "duration of efficacy in RLS therapy", "setting": "[2]; human, in vivo", "result": 24, "unit": "h"}, {"measurement": "markedly satisfied with sleep, number of patients", "setting": "[2]; of 9 patients, endpoint", "result": 4}, {"measurement": "moderately satisfied with sleep, number of patients", "setting": "[2]; of 9 patients, endpoint", "result": 1}, {"measurement": "moderately unsatisfied with sleep, number of patients", "setting": "[2]; of 9 patients, endpoint", "result": 2}, {"measurement": "severity of illness rated borderline (PGI), number of patients", "setting": "[2]; of 9 patients, endpoint", "result": 2}, {"measurement": "severity of illness rated moderately ill (PGI), number of patients", "setting": "[2]; of 9 patients, endpoint", "result": "two"}, {"measurement": "severity of illness rated normal (PGI), number of patients", "setting": "[2]; of 9 patients, endpoint, at baseline extremely (2), very (4) or markedly (3) ill", "result": 5}, {"measurement": "very satisfied with sleep, number of patients", "setting": "[2]; of 9 patients, endpoint, baseline very (1), markedly (6) or moderately (2) unsatisfied", "result": 2}, {"measurement": "general condition much better (PGI), number of patients", "setting": "[2]; [3]", "result": 3}, {"measurement": "general condition very much better (PGI), number of patients", "setting": "[2]; [3]", "result": 6}, {"measurement": "RLS severity during the time of falling asleep", "setting": "[2]; scale 0=not present to 10=very strong, last week, baseline 4.9±4.3", "result": "0.4±0.7"}, {"measurement": "RLS severity during the day", "setting": "[2]; scale 0=not present to 10=very strong, last week, baseline 5.1±3.4", "result": "0.8±1.7"}, {"measurement": "RLS severity during the night", "setting": "[2]; scale 0=not present to 10=very strong, last week, baseline 6.7±2.7", "result": "1.6±2.6"}, {"measurement": "global quality of the previous night (sleep diary)", "setting": "[2]; scale zero (very bad) to 10 (very good), endpoint, baseline 3.1", "result": 6.9}, {"measurement": "efficacy in restless legs syndrome (in words)", "setting": "[2]; single evening dose, incl. severe RLS and levodopa augmentation", "result": "effective and well tolerated; also recorded: very effective and well tolerated"}, {"measurement": "quality of life (Hamburger Visual Analogue Scale), in words", "setting": "[2]; vs. baseline conditions", "result": "much better"}]}]}
